Calls of active or inactive are those of the source. No cut-off for these calls is given here.
Assays:
Rattus norvegicus [1] = assay: Increase in sucrose tolerance in fasted normoglycemic Wistar Rattus norvegicus (rat) assessed as reduction in serum glucose level at 7 mg/kg, po measured at 30-120 min post-sucrose challenge by oral sucrose tolerance test; type: functional, organism-based; design: dose 7 mg/kg
Rattus norvegicus [2] = assay: In vivo antidiabetic activity in streptozotocin-induced diabetic Wistar Rattus norvegicus (rat) assessed as reduction in serum glucose level at 10 mg/kg, po measured after 4 hr by glucose oxidase method; type: functional, organism-based; design: dose 10 mg/kg
Rattus norvegicus [3] = assay: Increase in glucose tolerance in fasted normoglycemic Wistar Rattus norvegicus (rat) assessed as suppression of blood glucose AUC at 10 mg/kg, po measured at 30-120 min post-glucose challenge by oral glucose tolerance test; type: functional, organism-based; design: dose 10 mg/kg
Rattus norvegicus [4] = assay: In vivo antidiabetic activity in streptozotocin-induced diabetic Wistar Rattus norvegicus (rat) assessed as reduction in serum glucose level at 0.5 mg/kg, po for 7 days measured at 30 to 120 min post-glucose challenge by oral glucose tolerance test; type: functional, organism-based; design: dose 0.5 mg/kg
Rattus norvegicus [5] = assay: In vivo antidiabetic activity in streptozotocin-induced diabetic Wistar Rattus norvegicus (rat) assessed as serum total cholesterol level at 0.5 mg/kg, po for 7 days by spectrophotometric analysis (reference value: 126.62 +/-4.7 mg/dl); type: functional
Rattus norvegicus [6] = assay: In vivo antidiabetic activity in streptozotocin-induced diabetic Wistar Rattus norvegicus (rat) assessed as serum triglyceride level at 0.5 mg/kg, po for 7 days by spectrophotometric analysis (reference value: 128.77 +/-6.3 mg/dl); type: functional
Rattus norvegicus [7] = assay: In vivo antidiabetic activity in streptozotocin-induced diabetic Wistar Rattus norvegicus (rat) assessed as serum LDL-cholesterol level at 0.5 mg/kg, po for 7 days by spectrophotometric analysis (reference value: 80.75 +/-3.4 mg/dl); type: functional
Rattus norvegicus [8] = assay: In vivo antidiabetic activity in streptozotocin-induced diabetic Wistar Rattus norvegicus (rat) assessed as serum VLDL-cholesterol level at 0.5 mg/kg, po for 7 days by spectrophotometric analysis (reference value: 28.12 +/-1.5 mg/dl); type: functional
Rattus norvegicus [9] = assay: In vivo antidiabetic activity in streptozotocin-induced diabetic Wistar Rattus norvegicus (rat) assessed as serum HDL-cholesterol level at 0.5 mg/kg, po for 7 days by spectrophotometric analysis (reference value: 17.52 +/-2.1 mg/dl); type: functional
Rattus norvegicus [10] = assay: In vivo antidiabetic activity in streptozotocin-induced diabetic Wistar Rattus norvegicus (rat) assessed as reduction in serum glucose level at 25 mg/kg, po for 7 days measured at 30 to 120 min post-glucose challenge by oral glucose tolerance test; type: functional, organism-based; design: dose 25 mg/kg
Rattus norvegicus [11] = assay: In vivo antidiabetic activity in streptozotocin-induced diabetic Wistar Rattus norvegicus (rat) assessed as reduction in serum glucose level at 25 mg/kg, po measured after 2 to 4 hr by glucose oxidase method; type: functional, organism-based; design: dose 25 mg/kg
Rattus norvegicus [12] = assay: Increase in sucrose tolerance in fasted normoglycemic Wistar Rattus norvegicus (rat) assessed as reduction in serum glucose level at 25 mg/kg, po measured at 30-120 min post-sucrose challenge by oral sucrose tolerance test; type: functional, organism-based; design: dose 25 mg/kg
Rattus norvegicus [13] = assay: Increase in glucose tolerance in fasted normoglycemic Wistar Rattus norvegicus (rat) assessed as suppression of blood glucose AUC at 25 mg/kg, po measured at 30-120 min post-glucose challenge by oral glucose tolerance test; type: functional, organism-based; design: dose 25 mg/kg
Rattus norvegicus [14] = assay: In vivo antidiabetic activity in streptozotocin-induced diabetic Wistar Rattus norvegicus (rat) assessed as serum HDL-cholesterol level at 25 mg/kg, po for 7 days by spectrophotometric analysis (reference value: 17.52 +/-2.1 mg/dl); type: functional
Rattus norvegicus [15] = assay: In vivo antidiabetic activity in streptozotocin-induced diabetic Wistar Rattus norvegicus (rat) assessed as serum total cholesterol level at 25 mg/kg, po for 7 days by spectrophotometric analysis (reference value: 126.62 +/-4.7 mg/dl); type: functional
Rattus norvegicus [16] = assay: In vivo antidiabetic activity in streptozotocin-induced diabetic Wistar Rattus norvegicus (rat) assessed as serum triglyceride level at 25 mg/kg, po for 7 days by spectrophotometric analysis (reference value: 128.77 +/-6.3 mg/dl); type: functional
Rattus norvegicus [17] = assay: In vivo antidiabetic activity in streptozotocin-induced diabetic Wistar Rattus norvegicus (rat) assessed as serum LDL-cholesterol level at 25 mg/kg, po for 7 days by spectrophotometric analysis (reference value: 80.75 +/-3.4 mg/dl); type: functional
Rattus norvegicus [18] = assay: In vivo antidiabetic activity in streptozotocin-induced diabetic Wistar Rattus norvegicus (rat) assessed as serum VLDL-cholesterol level at 25 mg/kg, po for 7 days by spectrophotometric analysis (reference value: 28.12 +/-1.5 mg/dl); type: functional

**Q.** How did the Activity (Rattus norvegicus [1]) turn out when C[C@H]1O[C@H](O[C@H]2[C@H](O)[C@@H](O)[C@@H](O[C@H]3[C@H](O)[C@@H](O)C(O)O[C@@H]3CO)O[C@@H]2CO)[C@H](O)[C@@H](O)[C@@H]1N[C@H]1C=C(CO)[C@@H](O)[C@H](O)[C@H]1O (stereo partly drawn) was run?
**A.** Active

**Q.** How did the inhibition (Rattus norvegicus [2]) turn out when COc1ccc(Cl)cc1C(=O)NCCc1ccc(S(=O)(=O)NC(=O)NC2CCCCC2)cc1 [GLYBURIDE] was run?
**A.** Active

**Q.** What about the Activity (Rattus norvegicus [3]) of the same compound?
**A.** Active

**Q.** And the inhibition (Rattus norvegicus [4])?
**A.** Active

**Q.** And the Activity (Rattus norvegicus [5])?
**A.** 81.9 mg/dL

**Q.** And the Activity (Rattus norvegicus [6])?
**A.** 87.4 mg/dL

**Q.** What about the Activity (Rattus norvegicus [7]) of the same compound?
**A.** 39.5 mg/dL

**Q.** And the Activity (Rattus norvegicus [8])?
**A.** 19.4 mg/dL

**Q.** What about the Activity (Rattus norvegicus [9]) of the same compound?
**A.** 27.3 mg/dL

**Q.** How did the inhibition (Rattus norvegicus [10]) turn out when COc1cc(/C=C2\CC/C(=C\c3ccc(O)c(OC)c3)C2=O)ccc1O was run?
**A.** Active

**Q.** What about the inhibition (Rattus norvegicus [11]) of the same compound?
**A.** Active

**Q.** And the Activity (Rattus norvegicus [12])?
**A.** Active

**Q.** And the Activity (Rattus norvegicus [13])?
**A.** Active

**Q.** And the Activity (Rattus norvegicus [14])?
**A.** 26.03 mg/dL

**Q.** What about the Activity (Rattus norvegicus [15]) of the same compound?
**A.** 80.41 mg/dL

**Q.** What about the Activity (Rattus norvegicus [16]) of the same compound?
**A.** 81.9 mg/dL

**Q.** What about the Activity (Rattus norvegicus [17]) of the same compound?
**A.** 25.4 mg/dL

**Q.** And the Activity (Rattus norvegicus [18])?
**A.** 20.98 mg/dL

From ChEMBL document CHEMBL3046039, “In vivo antidiabetic activity and in silico studies on adenosine monophosphate-activated protein kinase (AMPK) of (2E,5E)-2,5-bis(4-hydroxy-3-methoxybenzylidene) cyclopentanone” (2013)
